According to PubChem BioAssay (NCI):
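Briefly, cells in 96-well plates were exposed to five compound concentrations for 48 h, and endpoints were estimated by linear interpolation. GI50 = concentration required for 50% inhibition of growth. The concentration for full growth arrest is given as TGI.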

What was measured:
Test in all cases: growth of human tumour cells (NCI), 48 h
[1] = test system: NCI-H522 lung
[2] = test system: IGROV1 ovarian
[3] = test system: PC-3 prostate
[4] = test system: HS 578T breast
[5] = test system: SN12C renal
[6] = test system: OVCAR-4 ovarian
[7] = test system: OVCAR-3 ovarian
[8] = test system: M14 melanoma
[9] = test system: SK-MEL-28 melanoma
[10] = test system: SF-268 CNS
[11] = test system: SF-295 CNS
[12] = test system: UACC-257 melanoma
[13] = test system: HCC-2998 colon
[14] = test system: NCI-H226 lung
[15] = test system: CCRF-CEM leukemia
[16] = test system: KM12 colon
[17] = test system: MDA-MB-435
[18] = test system: ACHN renal
[19] = test system: SNB-75 CNS
[20] = test system: HOP-92 NSCLC
[21] = test system: UACC-62 melanoma
[22] = test system: SK-MEL-5 melanoma
[23] = test system: A498 renal
[24] = test system: HL-60(TB) leukemia
[25] = test system: K-562 leukemia
[26] = test system: RXF 393 renal
[27] = test system: SF-539 CNS
[28] = test system: MOLT-4 leukemia
[29] = test system: DU-145 prostate
[30] = test system: MCF7 breast
[31] = test system: UO-31 renal
[32] = test system: 786-0 renal
[33] = test system: OVCAR-8 ovarian
[34] = test system: MDA-MB-231 breast
[35] = test system: SK-MEL-2 melanoma
[36] = test system: HT29 colon
[37] = test system: TK-10 renal
[38] = test system: NCI/ADR-RES ovarian
[39] = test system: LOX IMVI melanoma
[40] = test system: SK-OV-3 ovarian
[41] = test system: CAKI-1 renal
[42] = test system: OVCAR-5 ovarian
[43] = test system: SW-620 colon
[44] = test system: NCI-H460 lung
[45] = test system: HOP-62 NSCLC
[46] = test system: BT-549 breast
[47] = test system: SNB-19 CNS
[48] = test system: U251 CNS
[49] = test system: A549 NSCLC
[50] = test system: RPMI-8226 leukemia
[51] = test system: HCT-116 colon
[52] = test system: EKVX NSCLC
[53] = test system: NCI-H23 lung
[54] = test system: COLO 205 colon
[55] = test system: HCT-15 colon
[56] = test system: T-47D breast
[57] = test system: MALME-3M melanoma
[58] = test system: SR leukemia

## S=c1[nH]c(=S)c2cc3ccccc3nc2[nH]1
[1]
  GI50: 20.5 µM
  TGI: 51.7 µM
[2]
  GI50: 23 µM
  TGI: > 100 µM
[3]
  GI50: 4.74 µM
  TGI: > 100 µM
[4]
  GI50: 71.3 µM
  TGI: > 100 µM
[5]
  GI50: > 100 µM
  TGI: > 100 µM
[6]
  GI50: > 100 µM
  TGI: > 100 µM
[7]
  GI50: 12.9 µM
  TGI: 95.8 µM
[8]
  GI50: > 100 µM
  TGI: > 100 µM
[9]
  GI50: > 100 µM
  TGI: > 100 µM
[10]
  GI50: 39.4 µM
  TGI: > 100 µM
[11]
  GI50: > 100 µM
  TGI: > 100 µM
[12]
  GI50: > 100 µM
  TGI: > 100 µM
[13]
  GI50: 92.3 µM
  TGI: > 100 µM
[14]
  GI50: > 100 µM
  TGI: > 100 µM
[15]
  GI50: 5.21 µM
  TGI: > 100 µM
[16]
  GI50: 29.5 µM
  TGI: > 100 µM
[17]
  GI50: 31.1 µM
  TGI: > 100 µM
[18]
  GI50: > 100 µM
  TGI: > 100 µM
[19]
  GI50: > 100 µM
  TGI: > 100 µM
[20]
  GI50: 15.4 µM
  TGI: > 100 µM
[21]
  GI50: 69.5 µM
  TGI: > 100 µM
[22]
  GI50: 30 µM
  TGI: > 100 µM
[23]
  GI50: > 100 µM
  TGI: > 100 µM
[24]
  GI50: 38 µM
  TGI: > 100 µM
[25]
  GI50: > 100 µM
  TGI: > 100 µM
[26]
  GI50: > 100 µM
  TGI: > 100 µM
[27]
  GI50: > 100 µM
  TGI: > 100 µM
[28]
  GI50: 4.68 µM
  TGI: > 100 µM
[29]
  GI50: > 100 µM
  TGI: > 100 µM
[30]
  GI50: 5.33 µM
  TGI: > 100 µM
[31]
  GI50: > 100 µM
  TGI: > 100 µM
[32]
  GI50: > 100 µM
  TGI: > 100 µM
[33]
  GI50: > 100 µM
  TGI: > 100 µM
[34]
  GI50: 51 µM
  TGI: > 100 µM
[35]
  GI50: 26.1 µM
  TGI: 84.7 µM
[36]
  GI50: > 100 µM
  TGI: > 100 µM
[37]
  GI50: 94.2 µM
  TGI: > 100 µM
[38]
  GI50: > 100 µM
  TGI: > 100 µM
[39]
  GI50: > 100 µM
  TGI: > 100 µM
[40]
  GI50: > 100 µM
  TGI: > 100 µM
[41]
  GI50: > 100 µM
  TGI: > 100 µM
[42]
  GI50: > 100 µM
  TGI: > 100 µM
[43]
  GI50: 26.8 µM
  TGI: > 100 µM
[44]
  GI50: 73.2 µM
  TGI: > 100 µM
[45]
  GI50: > 100 µM
  TGI: > 100 µM
[46]
  GI50: 35.4 µM
  TGI: > 100 µM
[47]
  GI50: 35.5 µM
  TGI: > 100 µM
[48]
  GI50: 5.98 µM
  TGI: 41.6 µM
[49]
  GI50: > 100 µM
  TGI: > 100 µM
[50]
  GI50: 7.96 µM
  TGI: > 100 µM
[51]
  GI50: 69.8 µM
  TGI: > 100 µM
[52]
  GI50: 31 µM
  TGI: > 100 µM
[53]
  GI50: 35 µM
  TGI: > 100 µM
[54]
  GI50: 20.3 µM
  TGI: > 100 µM
[55]
  GI50: > 100 µM
  TGI: > 100 µM
[56]
  GI50: 11.1 µM
  TGI: > 100 µM
[57]
  GI50: 14.6 µM
  TGI: 45.1 µM

## COc1ccc(C(=O)Nc2ccc(O)c(=O)cc2)cc1
[1]
  TGI: 63.1 µM
[2]
  TGI: > 100 µM
[3]
  TGI: > 100 µM
[4]
  TGI: > 100 µM
[5]
  TGI: > 100 µM
[7]
  TGI: 90 µM
[8]
  TGI: > 100 µM
[9]
  TGI: 56.4 µM
[10]
  TGI: 63.4 µM
[11]
  TGI: > 100 µM
[12]
  TGI: > 100 µM
[13]
  TGI: > 100 µM
[14]
  TGI: > 100 µM
[15]
  TGI: 72.1 µM
[16]
  TGI: > 100 µM
[17]
  TGI: > 100 µM
[18]
  TGI: 59.8 µM
[21]
  TGI: > 100 µM
[22]
  TGI: > 100 µM
[24]
  TGI: 54.6 µM
[25]
  TGI: 77.3 µM
[26]
  TGI: 37.3 µM
[27]
  TGI: 81.1 µM
[29]
  TGI: 59 µM
[30]
  TGI: 65 µM
[31]
  TGI: 47 µM
[32]
  TGI: > 100 µM
[33]
  TGI: 91.7 µM
[34]
  TGI: > 100 µM
[35]
  TGI: > 100 µM
[36]
  TGI: 44.1 µM
[37]
  TGI: > 100 µM
[38]
  TGI: > 100 µM
[39]
  TGI: > 100 µM
[41]
  TGI: > 100 µM
[42]
  TGI: > 100 µM
[43]
  TGI: > 100 µM
[44]
  TGI: 28.7 µM
[45]
  TGI: > 100 µM
[46]
  TGI: > 100 µM
[47]
  TGI: 93.6 µM
[58]
  TGI: 31.4 µM
[48]
  TGI: > 100 µM
[49]
  TGI: > 100 µM
[50]
  TGI: > 100 µM
[51]
  TGI: > 100 µM
[52]
  TGI: 59 µM
[53]
  TGI: > 100 µM
[54]
  TGI: 57 µM
[55]
  TGI: 89.5 µM
[57]
  TGI: > 100 µM

## COc1cc2c(cc1OC)C1C3CCCCC3CCN1CC2 (centres undefined)
[1]
  TGI: > 100 µM
[2]
  TGI: > 100 µM
[3]
  TGI: > 100 µM
[4]
  TGI: > 100 µM
[5]
  TGI: > 100 µM
[6]
  TGI: > 100 µM
[7]
  TGI: > 100 µM
[9]
  TGI: > 100 µM
[10]
  TGI: > 100 µM
[11]
  TGI: > 100 µM
[12]
  TGI: > 100 µM
[13]
  TGI: > 100 µM
[14]
  TGI: > 100 µM
[15]
  TGI: > 100 µM
[16]
  TGI: > 100 µM
[17]
  TGI: > 100 µM
[18]
  TGI: > 100 µM
[19]
  TGI: > 100 µM
[20]
  TGI: > 100 µM
[21]
  TGI: > 100 µM
[22]
  TGI: > 100 µM
[23]
  TGI: > 100 µM
[24]
  TGI: > 100 µM
[25]
  TGI: > 100 µM
[26]
  TGI: > 100 µM
[27]
  TGI: > 100 µM
[28]
  TGI: > 100 µM
[29]
  TGI: > 100 µM
[30]
  TGI: > 100 µM
[32]
  TGI: > 100 µM
[33]
  TGI: > 100 µM
[34]
  TGI: > 100 µM
[35]
  TGI: > 100 µM
[36]
  TGI: > 100 µM
[37]
  TGI: > 100 µM
[38]
  TGI: > 100 µM
[39]
  TGI: > 100 µM
[40]
  TGI: > 100 µM
[41]
  TGI: > 100 µM
[42]
  TGI: > 100 µM
[43]
  TGI: > 100 µM
[44]
  TGI: > 100 µM
[45]
  TGI: > 100 µM
[47]
  TGI: > 100 µM
[58]
  TGI: > 100 µM
[48]
  TGI: > 100 µM
[49]
  TGI: > 100 µM
[51]
  TGI: > 100 µM
[52]
  TGI: > 100 µM
[53]
  TGI: > 100 µM
[54]
  TGI: > 100 µM
[55]
  TGI: > 100 µM
[56]
  TGI: > 100 µM
[57]
  TGI: > 100 µM
